Experimental findings from patent US10576151B2, “Ciclopirox for use in modulation of glucose homeostasis” (UNIVERSITY OF SOUTH CAROLINA, priority 2015, dated 2020) are described below.

One test has as its system insulin. Put plainly: Western blot of insulin levels in islets in culture. In kind it is cell-based, mouse. As to the method: Western Blotting. The mouse islets were treated with CPX 20 μM for 24 h and lysed in RIPA buffer [50 mM Tris, pH 7.2; 150 mM NaCl; 1% sodium deoxycholate; 0.1% SDS; 1% Triton-X 100; 10 mM NaF; 1 mM Na3VO4; protease inhibitor cocktail (1:1000, Sigma, St. Louis, Mo.)] and were subjected to immunoblot analysis by standard methods. Proteins were resolved on a 10% SDS-PAGE and transferred to a nitrocellulose membrane (Bio-Rad, Hercules, Calif.). Membranes were probed overnight with GADD153 (F-168), sc-575 from Santa Cruz Biotechnology (1:50); p21 (F-5), sc-6246 from Santa Cruz Biotechnology (1:200); actin, clone C4 MAB1501 from Millipore (Billerica, Mass., USA) (1:2000); BiP antibody (cat. no. 3183) from Cell Signaling (Danvers, Mass., USA) (1:1000); GRP94 antibody (H-212), sc-11402 from Santa Cruz Biotechnology (1:500); insulin rabbit polyclonal H-86, sc-9168 from Santa Cruz Biotechnology (1:500) antibodies followed by incubation with horseradish peroxidase-conjugated (HRP) anti-mouse (1:10000), goat anti-rabbit IgG (1:10000, Santa Cruz biotechnology Inc., Santa Cruz, Calif., USA) for 1 hr. After incubation with enhanced chemiluminescence reagents (Santa Cruz biotechnology Inc.), membranes were analyzed using an Image J software for Windows.
In order to understand better how CPX operates in β cells, it was tested to determine if it affected the efficiency by which insulin is produced following glucose stimulation. […] In view of the antidiabetic activity of CPX in vivo, the inhibition of insulin release appears contradictory. […]
While modulation of insulin release by CPX constitutes a challenging mechanism by which CPX may affect ER stress, how CPX regulates insulin expression remains obscure. […] To test this hypothesis, islets were exposed to iron citrate, alone or combined with CPX, and the levels were recorded of chaperones BiP, GRP94 and CHOP, as well as of insulin.
On the technique in general: Immunoblotting shows a protein as a band on a membrane.

The subject of the next test is pancreatic islets. In words: Islet survival under increasing glucose (glucotoxicity), CellTiter 96 AQueous One. Particulars: for protection from glucotoxicity (islet survival): increasing glucose. In kind it is cell-based, mice. Here is the method: Islet Isolation and Viability Assessment. Pancreatic islets were manually isolated from female C57BI/6 mice by the collagenase digestion method (Sigma-Aldrich; Li et al. 2009) and placed in a 96-well plate. The islets were incubated at 37° C. with 95% air and 5% CO2. Islets were manually picked after dithizone (DTZ; Sigma Chemical Co) staining. Before experiments were performed, the islet cells were incubated with extracellular Krebs-Ringer (KR) solution (Sigma-Aldrich) and with increasing amounts of glucose for 24 h and 48 h. Islet cell viability was assessed using CellTiter 96 AQueous One Solution Cell Proliferation Assay from Promega (Madison, USA). Islets from wt, p21-deficient, p53-deficient and CHOP-deficient mice were exposed to CPX at 20 μM for 24 h under increasing glucose amounts in the culture media, then they were let to recover for 48 h in normal glucose-containing media and their survival was assessed (FIG. 9). The 48 h recovery in normal media was deemed necessary because CPX, by inducing p21 expression would inflict cell cycle arrest in islets masking the effects of glucotoxicity. […] The p21-stimulatory activity of CPX in the islets is also p53-independent. […] Consistently with its pro-apoptotic role during ER stress CHOP ablation conferred resistance of islets to glucotoxicity (FIG. 10 at B).

Another test deals with p21. Put plainly: p21 stimulation in islets. It counts as cell-based, mice. The note with it: dependence on p53. As to the method: Western Blotting. The mouse islets were treated with CPX 20 μM for 24 h and lysed in RIPA buffer [50 mM Tris, pH 7.2; 150 mM NaCl; 1% sodium deoxycholate; 0.1% SDS; 1% Triton-X 100; 10 mM NaF; 1 mM Na3VO4; protease inhibitor cocktail (1:1000, Sigma, St. Louis, Mo.)] and were subjected to immunoblot analysis by standard methods. Proteins were resolved on a 10% SDS-PAGE and transferred to a nitrocellulose membrane (Bio-Rad, Hercules, Calif.). […] After incubation with enhanced chemiluminescence reagents (Santa Cruz biotechnology Inc.), membranes were analyzed using an Image J software for Windows. Islets from wt, p21-deficient, p53-deficient and CHOP-deficient mice were exposed to CPX at 20 μM for 24 h under increasing glucose amounts in the culture media, then they were let to recover for 48 h in normal glucose-containing media and their survival was assessed (FIG. 9). […]

Molecules are shown by their SMILES.

Regarding `Cc1cc(C2CCCCC2)n(O)c(=O)c1` [CPX, 6-cyclohexyl-1-hydroxy-4-methylpyridin-2(1H)-one], the “levels of intracellular insulin” value in the test with insulin (islets in high glucose-containing media with CPX (FIG. 11B)) is “moderate suppression”. Besides, the insulin production entry in the test on insulin (islets, iron citrate with concomitant CPX (FIG. 12A)) is recorded as “compromised the effects of iron citrate”. Also, the “protection from glucotoxicity (islet survival)” value is given as “not p21-deficient animals” with pancreatic islets (p21-deficient islets, CPX 20 μM 24 h then 48 h recovery (FIG. 10D)); “A similar trend was also found for p53” with pancreatic islets (p53-deficient islets, CPX 20 μM 24 h then 48 h recovery (FIG. 10C)); “protected wt” with pancreatic islets (wt islets, CPX 20 μM 24 h then 48 h recovery (FIG. 10A)). Also, the islet growth entry with pancreatic islets (wt islets, normal glucose, CPX 20 μM 24 h then 48 h recovery (FIG. 10A)) is reported as “significantly inhibited islet growth”. In addition, the “p21-stimulatory activity in the islets” value with p21 is “p53-independent”.
